In PubChem BioAssay (NCI):
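GI50 = concentration required for 50% inhibition of growth. TGI denotes the concentration required for complete inhibition of growth.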

Key:
Test in all cases: inhibition of tumour cell growth, NCI panel, 384-well format
[1] = test system: HS 578T breast
[2] = test system: SNB-19 CNS
[3] = test system: OVCAR-8 ovarian
[4] = test system: IGROV1 ovarian
[5] = test system: SW-620 colon
[6] = test system: RPMI-8226 leukemia
[7] = test system: HOP-92 NSCLC
[8] = test system: CCRF-CEM leukemia
[9] = test system: OVCAR-3 ovarian
[10] = test system: HCT-116 colon
[11] = test system: OVCAR-5 ovarian
[12] = test system: MDA-MB-435 melanoma
[13] = test system: SK-OV-3 ovarian
[14] = test system: HCT-15 colon
[15] = test system: PC-3 prostate
[16] = test system: 786-0 renal
[17] = test system: CAKI-1 renal
[18] = test system: MDA-MB-468 breast
[19] = test system: SK-MEL-28 melanoma
[20] = test system: A498 renal
[21] = test system: UO-31 renal
[22] = test system: RXF 393 renal
[23] = test system: HCC-2998 colon
[24] = test system: SF-295 CNS
[25] = test system: HL-60(TB) leukemia
[26] = test system: HOP-62 NSCLC
[27] = test system: MALME-3M melanoma
[28] = test system: A549 NSCLC
[29] = test system: UACC-257 melanoma
[30] = test system: KM12 colon
[31] = test system: TK-10 renal
[32] = test system: SF-539 CNS
[33] = test system: NCI-H460 NSCLC
[34] = test system: ACHN renal
[35] = test system: U251 glioblastoma
[36] = test system: SF-268 CNS
[37] = test system: T-47D breast
[38] = test system: COLO 205 colon
[39] = test system: NCI/ADR-RES ovarian
[40] = test system: OVCAR-4 ovarian
[41] = test system: M14 melanoma
[42] = test system: BT-549 breast
[43] = test system: HT29 colon
[44] = test system: NCI-H322M lung
[45] = test system: SNB-75 CNS
[46] = test system: MCF7 breast
[47] = test system: K-562 leukemia
[48] = test system: NCI-H522 lung
[49] = test system: SN12C renal
[50] = test system: NCI-H23 lung
[51] = test system: NCI-H226 lung
[52] = test system: EKVX NSCLC
[53] = test system: MOLT-4 leukemia
[54] = test system: SK-MEL-5 melanoma

COc1cc(C(=O)NC2CCN(C)CC2)ccc1Nc1ncc2c(n1)N(C1CCCC1)CC(F)(F)C(=O)N2C
GI50 [1]: < 10 nM
TGI [1]: 31.1 nM
GI50 [2]: < 10 nM
TGI [2]: 3080 nM
GI50 [3]: 12.3 nM
TGI [3]: 29.3 nM
GI50 [4]: 18.6 nM
TGI [4]: 2070 nM
GI50 [5]: < 10 nM
TGI [5]: 97.4 nM
GI50 [6]: 18.8 nM
TGI [6]: 43.7 nM
GI50 [7]: 20.7 nM
TGI [7]: 902 nM
GI50 [8]: < 10 nM
TGI [8]: < 10 nM
GI50 [9]: < 10 nM
TGI [9]: < 10 nM
GI50 [10]: < 10 nM
TGI [10]: 1170 nM
GI50 [11]: 12.2 nM
TGI [11]: 1290 nM
GI50 [12]: < 10 nM
TGI [12]: 12.2 nM
GI50 [13]: 11.4 nM
TGI [13]: 494 nM
GI50 [14]: 219 nM
TGI [14]: 1220 nM
GI50 [15]: 33.8 nM
TGI [15]: 13200 nM
GI50 [16]: 41 nM
TGI [16]: 1350 nM
GI50 [17]: 194 nM
TGI [17]: 10600 nM
GI50 [18]: < 10 nM
TGI [18]: < 10 nM
GI50 [19]: 46.4 nM
TGI [19]: 4740 nM
GI50 [20]: 106 nM
TGI [20]: 12300 nM
GI50 [21]: 1310 nM
TGI [21]: 7870 nM
GI50 [22]: < 10 nM
TGI [22]: 35 nM
GI50 [23]: 11.6 nM
TGI [23]: 39.6 nM
GI50 [24]: 29.9 nM
TGI [24]: 134 nM
GI50 [25]: < 10 nM
TGI [25]: < 10 nM
GI50 [26]: < 10 nM
TGI [26]: 2210 nM
GI50 [27]: 29.5 nM
TGI [27]: 1590 nM
GI50 [28]: < 10 nM
TGI [28]: 707 nM
GI50 [29]: 21.7 nM
TGI [29]: 2060 nM
GI50 [30]: < 10 nM
TGI [30]: 11200 nM
GI50 [31]: 1090 nM
TGI [31]: 4950 nM
GI50 [32]: 17.2 nM
TGI [32]: 263 nM
GI50 [33]: 11.5 nM
TGI [33]: 35.5 nM
GI50 [34]: 666 nM
TGI [34]: 14100 nM
GI50 [35]: < 10 nM
TGI [35]: 1440 nM
GI50 [36]: < 10 nM
TGI [36]: < 10 nM
GI50 [37]: 28.2 nM
TGI [37]: 365 nM
GI50 [38]: < 10 nM
TGI [38]: 10700 nM
GI50 [39]: 1660 nM
TGI [39]: 3980 nM
GI50 [40]: 1640 nM
TGI [40]: 7570 nM
GI50 [41]: 12.5 nM
TGI [41]: 74.3 nM
GI50 [42]: 11.3 nM
TGI [42]: 159 nM
GI50 [43]: < 10 nM
TGI [43]: 21.5 nM
GI50 [44]: 842 nM
TGI [44]: 11800 nM
GI50 [45]: 57.4 nM
TGI [45]: 7490 nM
GI50 [46]: < 10 nM
TGI [46]: 1440 nM
GI50 [47]: < 10 nM
TGI [47]: 19.7 nM
GI50 [48]: < 10 nM
TGI [48]: < 10 nM
GI50 [49]: 43.9 nM
TGI [49]: 1750 nM
GI50 [50]: < 10 nM
TGI [50]: 20 nM
GI50 [51]: 1560 nM
TGI [51]: 6190 nM
GI50 [52]: 79.3 nM
TGI [52]: 2700 nM
GI50 [53]: < 10 nM
TGI [53]: < 10 nM
GI50 [54]: < 10 nM
TGI [54]: 180 nM
